Results published in article PMC8537180, “Discovery of a Kojibiose Hydrolase by Analysis of Specificity-Determining Correlated Positions in Glycoside Hydrolase Family 65” (Molecules, 2021).
Read-outs that look alike come from different tables or passages of the source.

Experiments:
CaGP = target: T1, CaGP (Caldithrix abyssi, UniProt H1XSN4); assay: phosphomolybdate assay and HPAEC-PAD, synthesis direction; type: biochemical; settings: 50 mM MOPS pH 7.0
T1 construct: gene Calab_2975; codon-optimized gene in pET21a, C-terminal His6-tag, expressed in E. coli BL21(DE3) agp-, Ni-NTA purified; GH65 subgroup 22

TbGP = target: T2, TbGP (Thermobispora bispora, UniProt D6Y6U5); assay: as above; type: biochemical; settings: 50 mM MOPS pH 7.0, trehalose formed
T2 construct: gene Tbis_2887; codon-optimized gene in pET21a, C-terminal His6-tag, expressed in E. coli BL21(DE3) agp-, Ni-NTA purified; GH65 subgroup 1

MiGP = target: T3, MiGP (Mageeibacillus indolicus, UniProt D3R1R5); assay: as above; type: biochemical; settings: acceptor, minor activity; donor 10 mM βGlc1P; 50 mM MOPS pH 7.0
T3 construct: gene HMPREF0868_0806; codon-optimized gene in pET21a, C-terminal His6-tag, expressed in E. coli BL21(DE3) agp-, Ni-NTA purified; GH65 subgroup 6
T3 sequence (D3R1R5 1-712): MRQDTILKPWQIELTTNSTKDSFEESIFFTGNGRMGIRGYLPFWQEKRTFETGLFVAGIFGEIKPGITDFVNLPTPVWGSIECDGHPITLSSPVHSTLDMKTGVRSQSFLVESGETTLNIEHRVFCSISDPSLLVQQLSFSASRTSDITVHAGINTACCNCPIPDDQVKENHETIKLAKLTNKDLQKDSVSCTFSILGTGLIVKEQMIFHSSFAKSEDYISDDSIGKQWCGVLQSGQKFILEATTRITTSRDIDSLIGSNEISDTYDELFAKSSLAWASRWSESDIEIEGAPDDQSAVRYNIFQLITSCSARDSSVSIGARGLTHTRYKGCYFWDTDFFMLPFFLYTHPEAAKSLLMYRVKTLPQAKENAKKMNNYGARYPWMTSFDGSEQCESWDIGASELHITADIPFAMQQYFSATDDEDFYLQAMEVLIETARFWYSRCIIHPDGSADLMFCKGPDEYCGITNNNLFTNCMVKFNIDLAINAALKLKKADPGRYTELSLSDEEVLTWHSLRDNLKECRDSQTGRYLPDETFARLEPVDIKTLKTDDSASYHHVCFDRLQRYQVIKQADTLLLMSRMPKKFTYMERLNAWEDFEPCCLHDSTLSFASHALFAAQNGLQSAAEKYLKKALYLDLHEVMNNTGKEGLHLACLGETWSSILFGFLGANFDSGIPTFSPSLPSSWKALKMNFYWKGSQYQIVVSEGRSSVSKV

HoGP = target: T4, HoGP (Halothermothrix orenii, UniProt B8D049); settings: 50 mM MOPS pH 7.0
T4 construct: gene Hore_00420

ChGP = target: T5, ChGP (Caldicellulosiruptor hydrothermalis, UniProt E4Q9G1); assay: phosphomolybdate assay and HPAEC-PAD, synthesis direction; type: biochemical; settings: acceptor; donor βGlc1P; 50 mM MOPS pH 7.0
T5 construct: gene Calhy_0070; codon-optimized gene in pET21a, C-terminal His6-tag, expressed in E. coli BL21(DE3) agp-, Ni-NTA purified; GH65 subgroup 4
T5 sequence (E4Q9G1 entry or part of it): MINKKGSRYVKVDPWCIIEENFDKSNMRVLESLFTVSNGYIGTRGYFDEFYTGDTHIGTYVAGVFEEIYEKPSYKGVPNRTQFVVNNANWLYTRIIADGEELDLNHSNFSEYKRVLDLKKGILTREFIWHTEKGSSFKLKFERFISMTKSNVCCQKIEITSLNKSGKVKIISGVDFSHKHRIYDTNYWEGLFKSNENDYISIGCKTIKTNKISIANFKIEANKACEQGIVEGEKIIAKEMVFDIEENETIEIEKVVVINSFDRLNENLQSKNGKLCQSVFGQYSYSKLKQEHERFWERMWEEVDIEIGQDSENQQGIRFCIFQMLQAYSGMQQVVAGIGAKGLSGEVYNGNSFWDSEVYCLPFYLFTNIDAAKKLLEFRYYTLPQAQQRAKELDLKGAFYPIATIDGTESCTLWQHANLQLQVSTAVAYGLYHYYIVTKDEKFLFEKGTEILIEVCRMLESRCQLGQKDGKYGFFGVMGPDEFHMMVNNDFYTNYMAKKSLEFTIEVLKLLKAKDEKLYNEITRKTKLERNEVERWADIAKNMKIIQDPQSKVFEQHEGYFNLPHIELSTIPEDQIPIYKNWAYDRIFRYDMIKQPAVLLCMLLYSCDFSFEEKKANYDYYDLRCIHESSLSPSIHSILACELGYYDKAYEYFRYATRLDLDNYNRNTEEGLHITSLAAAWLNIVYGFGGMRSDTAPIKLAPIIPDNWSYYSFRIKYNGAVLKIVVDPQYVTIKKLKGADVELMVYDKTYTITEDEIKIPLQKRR

T1 sequence (H1XSN4 entry or part of it): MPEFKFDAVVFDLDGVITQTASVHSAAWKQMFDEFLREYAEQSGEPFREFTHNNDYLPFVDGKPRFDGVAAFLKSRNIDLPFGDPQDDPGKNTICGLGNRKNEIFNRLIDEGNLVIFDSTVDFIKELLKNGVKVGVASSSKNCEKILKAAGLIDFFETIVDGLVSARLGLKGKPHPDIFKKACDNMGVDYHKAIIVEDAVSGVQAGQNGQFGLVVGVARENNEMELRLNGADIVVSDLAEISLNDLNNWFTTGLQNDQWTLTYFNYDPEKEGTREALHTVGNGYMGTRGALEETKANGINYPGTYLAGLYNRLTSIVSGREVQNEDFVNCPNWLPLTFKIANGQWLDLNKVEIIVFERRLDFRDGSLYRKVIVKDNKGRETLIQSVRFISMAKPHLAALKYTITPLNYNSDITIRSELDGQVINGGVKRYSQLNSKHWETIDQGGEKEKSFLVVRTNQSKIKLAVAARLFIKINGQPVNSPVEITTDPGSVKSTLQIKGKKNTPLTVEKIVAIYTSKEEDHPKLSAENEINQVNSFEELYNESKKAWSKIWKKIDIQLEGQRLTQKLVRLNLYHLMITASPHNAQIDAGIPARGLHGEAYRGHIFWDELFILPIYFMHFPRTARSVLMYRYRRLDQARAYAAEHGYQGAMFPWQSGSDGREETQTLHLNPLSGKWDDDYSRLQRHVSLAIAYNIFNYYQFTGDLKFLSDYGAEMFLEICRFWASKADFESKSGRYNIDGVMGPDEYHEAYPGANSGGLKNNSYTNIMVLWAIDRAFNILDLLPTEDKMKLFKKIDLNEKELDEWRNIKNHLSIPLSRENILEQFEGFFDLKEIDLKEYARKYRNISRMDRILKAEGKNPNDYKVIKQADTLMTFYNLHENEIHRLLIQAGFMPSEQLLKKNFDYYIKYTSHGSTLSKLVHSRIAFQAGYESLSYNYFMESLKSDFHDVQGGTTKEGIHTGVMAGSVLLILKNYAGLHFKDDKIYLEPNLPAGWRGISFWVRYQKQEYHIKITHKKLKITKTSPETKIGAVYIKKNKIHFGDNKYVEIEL
T4 sequence (B8D049 whole entry): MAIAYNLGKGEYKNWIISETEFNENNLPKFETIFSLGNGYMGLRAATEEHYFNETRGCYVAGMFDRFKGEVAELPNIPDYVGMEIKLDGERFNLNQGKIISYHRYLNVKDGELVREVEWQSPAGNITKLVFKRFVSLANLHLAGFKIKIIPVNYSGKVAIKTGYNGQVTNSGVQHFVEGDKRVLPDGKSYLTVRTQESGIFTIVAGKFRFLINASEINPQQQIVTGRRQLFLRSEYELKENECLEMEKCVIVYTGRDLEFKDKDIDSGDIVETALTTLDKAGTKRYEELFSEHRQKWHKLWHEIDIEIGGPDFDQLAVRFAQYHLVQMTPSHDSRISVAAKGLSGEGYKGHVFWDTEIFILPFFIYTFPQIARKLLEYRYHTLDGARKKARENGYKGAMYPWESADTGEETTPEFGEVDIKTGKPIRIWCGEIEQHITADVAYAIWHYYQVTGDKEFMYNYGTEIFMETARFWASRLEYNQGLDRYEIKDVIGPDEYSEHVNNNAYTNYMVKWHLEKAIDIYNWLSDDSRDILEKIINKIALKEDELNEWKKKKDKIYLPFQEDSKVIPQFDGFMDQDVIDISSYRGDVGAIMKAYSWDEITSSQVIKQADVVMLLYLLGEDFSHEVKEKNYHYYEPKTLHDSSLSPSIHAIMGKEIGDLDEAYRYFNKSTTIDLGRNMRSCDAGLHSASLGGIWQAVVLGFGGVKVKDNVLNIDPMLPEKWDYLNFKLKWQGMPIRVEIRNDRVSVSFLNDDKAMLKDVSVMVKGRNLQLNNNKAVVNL
T2 sequence (D6Y6U5 entry or part of it): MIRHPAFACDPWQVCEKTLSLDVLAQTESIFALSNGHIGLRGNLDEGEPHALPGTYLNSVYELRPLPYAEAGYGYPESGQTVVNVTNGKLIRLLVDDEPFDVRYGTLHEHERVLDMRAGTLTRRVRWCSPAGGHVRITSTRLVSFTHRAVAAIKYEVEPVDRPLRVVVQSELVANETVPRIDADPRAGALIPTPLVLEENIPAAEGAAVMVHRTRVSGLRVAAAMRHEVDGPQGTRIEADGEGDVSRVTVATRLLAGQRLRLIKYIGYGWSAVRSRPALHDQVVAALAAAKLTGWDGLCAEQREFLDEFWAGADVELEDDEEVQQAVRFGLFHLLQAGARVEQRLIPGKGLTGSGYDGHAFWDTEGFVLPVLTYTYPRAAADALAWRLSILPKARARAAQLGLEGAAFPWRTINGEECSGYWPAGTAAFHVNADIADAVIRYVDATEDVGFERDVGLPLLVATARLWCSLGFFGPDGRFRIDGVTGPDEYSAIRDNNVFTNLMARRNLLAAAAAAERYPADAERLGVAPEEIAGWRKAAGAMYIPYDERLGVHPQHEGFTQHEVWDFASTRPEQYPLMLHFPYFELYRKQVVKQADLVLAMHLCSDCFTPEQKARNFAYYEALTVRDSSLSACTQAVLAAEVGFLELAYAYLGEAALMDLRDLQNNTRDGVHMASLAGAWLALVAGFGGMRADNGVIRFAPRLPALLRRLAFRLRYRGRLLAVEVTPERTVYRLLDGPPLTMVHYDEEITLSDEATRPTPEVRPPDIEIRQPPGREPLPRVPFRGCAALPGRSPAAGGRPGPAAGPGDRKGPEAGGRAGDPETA

With O=P(O)(O)OC[C@H]1OC(O)[C@H](O)[C@@H](O)[C@@H]1O (some centres unmarked) [glucose 6-phosphate] the “phosphomolybdate assay and HPAEC-PAD, synthesis direction” value (“phosphomolybdate assay and HPAEC-PAD” below) (CaGP; donor βGlc1P) was “trehalose 6-phosphate was produced from βGlc1P and glucose 6-phosphate”.

OC[C@H]1OC(O)[C@H](O)[C@@H](O)[C@@H]1O (some centres unmarked) [glucose] was tested, and the “phosphomolybdate assay and HPAEC-PAD” value (TbGP; donor βGlc1P) was “In a reaction mixture of glucose and βGlc1P, TbGP produced trehalose” and the “phosphomolybdate assay and HPAEC-PAD” value (MiGP) was “Apart from minor activity on glucose and galactose, MiGP prefers α-glucosidic disaccharides”.

OC[C@H]1O[C@H](O[C@H]2C(O)O[C@H](CO)[C@@H](O)[C@@H]2O)[C@H](O)[C@@H](O)[C@@H]1O (some centres unmarked) [kojibiose] was tested, and the “phosphomolybdate assay and HPAEC-PAD” value (HoGP; phosphorolysis and acceptor with βGlc1P) was “both breaking kojibiose down to glucose and βGlc1P and using it as acceptor”.

OC[C@H]1O[C@H](O[C@H]2[C@H](O)[C@@H](CO)OC(O)[C@@H]2O)[C@H](O)[C@@H](O)[C@@H]1O (some centres unmarked) [nigerose] was tested, and the “phosphomolybdate assay and HPAEC-PAD” value (ChGP) was “ChGP elongated nigerose, and other disaccharides, to form α-1,3-oligoglucans”.

O=P(O)(O)O[C@@H]1O[C@H](CO)[C@@H](O)[C@H](O)[C@H]1O [βGlc1P] was tested, and the “phosphomolybdate assay and HPAEC-PAD” value (TbGP; acceptor glucose) was “In a reaction mixture of glucose and βGlc1P, TbGP produced trehalose”, the “phosphomolybdate assay and HPAEC-PAD” value (HoGP; acceptor kojibiose) was “In a reaction mixture that contained both kojibiose and βGlc1P, phosphorolytic and synthetic reactions co-occur” and the “phosphomolybdate assay and HPAEC-PAD” value (CaGP; acceptor glucose 6-phosphate) was “trehalose 6-phosphate was produced from βGlc1P and glucose 6-phosphate”.
